Measured values as given in article PMC5380139 (FEBS letters, 2017).

Biological target: T1, LipL (Streptomyces sp., UniProt D4QF25)
T1 sequence (D4QF25 1-274): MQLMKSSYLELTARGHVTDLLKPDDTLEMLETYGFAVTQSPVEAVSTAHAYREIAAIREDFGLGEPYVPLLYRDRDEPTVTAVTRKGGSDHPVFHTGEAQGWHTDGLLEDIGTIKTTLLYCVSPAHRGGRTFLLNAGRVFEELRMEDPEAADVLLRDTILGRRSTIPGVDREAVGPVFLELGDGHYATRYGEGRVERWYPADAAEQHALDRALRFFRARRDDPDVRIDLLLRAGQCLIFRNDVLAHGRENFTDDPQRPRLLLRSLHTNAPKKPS
Format: biochemical

O=c1ccn([C@@H]2O[C@H](CCP(=O)(O)O)[C@@H](O)[C@H]2O)c(=O)[nH]1 [UMcP, 5′-deoxyuridine-5′-methylphosphonate]
Ki: 0.8 µM
